Earlier results as cited in patent US4758566A, “2-(1-piperazinyl)-4-substituted phenylquinoline derivatives, processes for the preparation thereof, and pharmaceutical composition containing the same” (Dainippon Pharmaceutical Co., Ltd., priority 1984, dated 1988).

Assays:
[1] = U.S. Pat. Nos. 3,542,785 and 3,668,207; cited from earlier work
[2] = U.S. Pat. Nos. 3,542,785 and 3,668,207; cited from earlier work; remark: listed apart in the source

## CN1CCN(c2cc(-c3ccccc3)c3cc(Cl)ccc3n2)CC1 [6-chloro-2-(4-methyl-1-piperazinyl)-4-phenylquinoline]
[1]
  antiinflammatory activity: have antiinflammatory and diuretic activities
[2]
  diuretic activity: have antiinflammatory and diuretic activities
